# Data reported in US9113629B2, “4-amino-6-(4-substituted-phenyl)-picolinates and 6-amino-2-(4-substituted-phenyl)-pyrimidine-4-carboxylates and their use as herbicides” (DOW AGROSCIENCES LLC, priority 2013, dated 2015).
# System: Key Broadleaf Weed and Crop Species
# Assay: Post-emergent Test II herbicidal activity (Table 5)
# Assay type: in vivo
# Settings: post-emergence, 336 h; ABUTH: velvetleaf (Abutilon theophrasti); 70 g ai/ha; post-emergent; 14 days after application; read-out: Visual Growth Reduction (%) 14 Days After Application ABUTH
# Method in brief: (§1)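 Post-emergence foliar spray, 187 L/ha, track sprayer at 43 cm above canopy. Carrier: acetone/water/IPA/DMSO/Atplus 411F/Triton X-155. Plants at 1st–2nd true leaf; subirrigated afterwards; % injury scored visually at 14 d.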
row,SMILES,pest or weed control at 70 g/ha [%]
1,"COC(=O)c1nc(-c2ccc(I)c(F)c2)cc(N)c1Cl [Compound 66, methyl 4-amino-3-chloro-6-(3-fluoro-4-iodophenyl)picolinate]",85 to 94

# Same assay, conditions: post-emergence, 336 h; ABUTH: velvetleaf (Abutilon theophrasti); 140 g ai/ha; post-emergent; 14 days after application; read-out: Visual Growth Reduction (%) 14 Days After Application ABUTH
row,SMILES,pest or weed control at 140 g/ha [%]
1,"COC(=O)c1nc(-c2ccc(I)c(F)c2)cc(N)c1Cl [Compound 66, methyl 4-amino-3-chloro-6-(3-fluoro-4-iodophenyl)picolinate]",85 to 94

# Same assay, conditions: post-emergence, 336 h; AMARE: redroot pigweed (Amaranthus retroflexus); 70 g ai/ha; post-emergent; 14 days after application; read-out: Visual Growth Reduction (%) 14 Days After Application AMARE
row,SMILES,pest or weed control at 70 g/ha [%]
1,"COC(=O)c1nc(-c2ccc(I)c(F)c2)cc(N)c1Cl [Compound 66, methyl 4-amino-3-chloro-6-(3-fluoro-4-iodophenyl)picolinate]",95 to 100

# Same assay, conditions: post-emergence, 336 h; AMARE: redroot pigweed (Amaranthus retroflexus); 140 g ai/ha; post-emergent; 14 days after application; read-out: Visual Growth Reduction (%) 14 Days After Application AMARE
row,SMILES,pest or weed control at 140 g/ha [%]
1,"COC(=O)c1nc(-c2ccc(I)c(F)c2)cc(N)c1Cl [Compound 66, methyl 4-amino-3-chloro-6-(3-fluoro-4-iodophenyl)picolinate]",95 to 100

# Same assay, conditions: post-emergence, 336 h; BRSNN: oilseed-rape, canola (Brassica napus); 70 g ai/ha; post-emergent; 14 days after application; read-out: Visual Growth Reduction (%) 14 Days After Application BRSNN
row,SMILES,pest or weed control at 70 g/ha [%]
1,"COC(=O)c1nc(-c2ccc(I)c(F)c2)cc(N)c1Cl [Compound 66, methyl 4-amino-3-chloro-6-(3-fluoro-4-iodophenyl)picolinate]",45 to 59

# Same assay, conditions: post-emergence, 336 h; BRSNN: oilseed-rape, canola (Brassica napus); 140 g ai/ha; post-emergent; 14 days after application; read-out: Visual Growth Reduction (%) 14 Days After Application BRSNN
row,SMILES,pest or weed control at 140 g/ha [%]
1,"COC(=O)c1nc(-c2ccc(I)c(F)c2)cc(N)c1Cl [Compound 66, methyl 4-amino-3-chloro-6-(3-fluoro-4-iodophenyl)picolinate]",45 to 59

# Same assay, conditions: post-emergence, 336 h; CHEAL: lambsquarters (Chenopodium album); 70 g ai/ha; post-emergent; 14 days after application; read-out: Visual Growth Reduction (%) 14 Days After Application CHEAL
row,SMILES,pest or weed control at 70 g/ha [%]
1,"COC(=O)c1nc(-c2ccc(I)c(F)c2)cc(N)c1Cl [Compound 66, methyl 4-amino-3-chloro-6-(3-fluoro-4-iodophenyl)picolinate]",85 to 94

# Same assay, conditions: post-emergence, 336 h; CHEAL: lambsquarters (Chenopodium album); 140 g ai/ha; post-emergent; 14 days after application; read-out: Visual Growth Reduction (%) 14 Days After Application CHEAL
row,SMILES,pest or weed control at 140 g/ha [%]
1,"COC(=O)c1nc(-c2ccc(I)c(F)c2)cc(N)c1Cl [Compound 66, methyl 4-amino-3-chloro-6-(3-fluoro-4-iodophenyl)picolinate]",85 to 94

# Same assay, conditions: post-emergence, 336 h; EPHHL: wild poinsettia (Euphorbia heterophylla); 70 g ai/ha; post-emergent; 14 days after application; read-out: Visual Growth Reduction (%) 14 Days After Application EPHHL
row,SMILES,pest or weed control at 70 g/ha [%]
1,"COC(=O)c1nc(-c2ccc(I)c(F)c2)cc(N)c1Cl [Compound 66, methyl 4-amino-3-chloro-6-(3-fluoro-4-iodophenyl)picolinate]",95 to 100

# Same assay, conditions: post-emergence, 336 h; EPHHL: wild poinsettia (Euphorbia heterophylla); 140 g ai/ha; post-emergent; 14 days after application; read-out: Visual Growth Reduction (%) 14 Days After Application EPHHL
row,SMILES,pest or weed control at 140 g/ha [%]
1,"COC(=O)c1nc(-c2ccc(I)c(F)c2)cc(N)c1Cl [Compound 66, methyl 4-amino-3-chloro-6-(3-fluoro-4-iodophenyl)picolinate]",95 to 100

# Same assay, conditions: post-emergence, 336 h; HELAN: sunflower (Helianthus annuus); 70 g ai/ha; post-emergent; 14 days after application; read-out: Visual Growth Reduction (%) 14 Days After Application HELAN
row,SMILES,pest or weed control at 70 g/ha [%]
1,"COC(=O)c1nc(-c2ccc(I)c(F)c2)cc(N)c1Cl [Compound 66, methyl 4-amino-3-chloro-6-(3-fluoro-4-iodophenyl)picolinate]",85 to 94

# Same assay, conditions: post-emergence, 336 h; HELAN: sunflower (Helianthus annuus); 140 g ai/ha; post-emergent; 14 days after application; read-out: Visual Growth Reduction (%) 14 Days After Application HELAN
row,SMILES,pest or weed control at 140 g/ha [%]
1,"COC(=O)c1nc(-c2ccc(I)c(F)c2)cc(N)c1Cl [Compound 66, methyl 4-amino-3-chloro-6-(3-fluoro-4-iodophenyl)picolinate]",85 to 94

# Same assay, conditions: post-emergence, 336 h; VIOTR: wild pansy (Viola tricolor); 70 g ai/ha; post-emergent; 14 days after application; read-out: Visual Growth Reduction (%) 14 Days After Application VIOTR
row,SMILES,pest or weed control at 70 g/ha [%]
1,"COC(=O)c1nc(-c2ccc(I)c(F)c2)cc(N)c1Cl [Compound 66, methyl 4-amino-3-chloro-6-(3-fluoro-4-iodophenyl)picolinate]",0 to 29

# Same assay, conditions: post-emergence, 336 h; VIOTR: wild pansy (Viola tricolor); 140 g ai/ha; post-emergent; 14 days after application; read-out: Visual Growth Reduction (%) 14 Days After Application VIOTR
row,SMILES,pest or weed control at 140 g/ha [%]
1,"COC(=O)c1nc(-c2ccc(I)c(F)c2)cc(N)c1Cl [Compound 66, methyl 4-amino-3-chloro-6-(3-fluoro-4-iodophenyl)picolinate]",0 to 29

# System: Key Grass and Sedge Weeds as well as Grass Crops
# Assay: Post-emergent Test II herbicidal activity (Table 6)
# Assay type: in vivo
# Settings: Triticum aestivum, post-emergence, 336 h, TRZSS (wheat), application rate 70 g ai/ha, read-out: Visual Growth Reduction (%) 14 Days After Application, TRZSS
# Method in brief: as §1
row,SMILES,pest or weed control at 70 g/ha [%]
1,"COC(=O)c1nc(-c2ccc(I)c(F)c2)cc(N)c1Cl [Compound 66, methyl 4-amino-3-chloro-6-(3-fluoro-4-iodophenyl)picolinate]",0 to 29

# Same assay, conditions: Triticum aestivum, post-emergence, 336 h, TRZSS (wheat), application rate 140 g ai/ha, read-out: Visual Growth Reduction (%) 14 Days After Application, TRZSS
row,SMILES,pest or weed control at 140 g/ha [%]
1,"COC(=O)c1nc(-c2ccc(I)c(F)c2)cc(N)c1Cl [Compound 66, methyl 4-amino-3-chloro-6-(3-fluoro-4-iodophenyl)picolinate]",0 to 29

# Same assay, conditions: post-emergence, 336 h, CYPES: yellow nutsedge (Cyperus esculentus), application rate 70 g ai/ha, read-out: Visual Growth Reduction (%) 14 Days After Application, CYPES
row,SMILES,pest or weed control at 70 g/ha [%]
1,"COC(=O)c1nc(-c2ccc(I)c(F)c2)cc(N)c1Cl [Compound 66, methyl 4-amino-3-chloro-6-(3-fluoro-4-iodophenyl)picolinate]",45 to 59

# Same assay, conditions: post-emergence, 336 h, CYPES: yellow nutsedge (Cyperus esculentus), application rate 140 g ai/ha, read-out: Visual Growth Reduction (%) 14 Days After Application, CYPES
row,SMILES,pest or weed control at 140 g/ha [%]
1,"COC(=O)c1nc(-c2ccc(I)c(F)c2)cc(N)c1Cl [Compound 66, methyl 4-amino-3-chloro-6-(3-fluoro-4-iodophenyl)picolinate]",95 to 100

# Same assay, conditions: post-emergence, 336 h, DIGSA: crabgrass (Digitaria sanguinalis), application rate 70 g ai/ha, read-out: Visual Growth Reduction (%) 14 Days After Application, DIGSA
row,SMILES,pest or weed control at 70 g/ha [%]
1,"COC(=O)c1nc(-c2ccc(I)c(F)c2)cc(N)c1Cl [Compound 66, methyl 4-amino-3-chloro-6-(3-fluoro-4-iodophenyl)picolinate]",60 to 74

# Same assay, conditions: post-emergence, 336 h, DIGSA: crabgrass (Digitaria sanguinalis), application rate 140 g ai/ha, read-out: Visual Growth Reduction (%) 14 Days After Application, DIGSA
row,SMILES,pest or weed control at 140 g/ha [%]
1,"COC(=O)c1nc(-c2ccc(I)c(F)c2)cc(N)c1Cl [Compound 66, methyl 4-amino-3-chloro-6-(3-fluoro-4-iodophenyl)picolinate]",60 to 74

# Same assay, conditions: post-emergence, 336 h, ECHCG: barnyardgrass (Echinochloa crus-galli), application rate 70 g ai/ha, read-out: Visual Growth Reduction (%) 14 Days After Application, ECHCG
row,SMILES,pest or weed control at 70 g/ha [%]
1,"COC(=O)c1nc(-c2ccc(I)c(F)c2)cc(N)c1Cl [Compound 66, methyl 4-amino-3-chloro-6-(3-fluoro-4-iodophenyl)picolinate]",0 to 29

# Same assay, conditions: post-emergence, 336 h, ECHCG: barnyardgrass (Echinochloa crus-galli), application rate 140 g ai/ha, read-out: Visual Growth Reduction (%) 14 Days After Application, ECHCG
row,SMILES,pest or weed control at 140 g/ha [%]
1,"COC(=O)c1nc(-c2ccc(I)c(F)c2)cc(N)c1Cl [Compound 66, methyl 4-amino-3-chloro-6-(3-fluoro-4-iodophenyl)picolinate]",60 to 74

# Same assay, conditions: post-emergence, 336 h, ORYSA: rice (Oryza sativa), application rate 70 g ai/ha, read-out: Visual Growth Reduction (%) 14 Days After Application, ORYSA
row,SMILES,pest or weed control at 70 g/ha [%]
1,"COC(=O)c1nc(-c2ccc(I)c(F)c2)cc(N)c1Cl [Compound 66, methyl 4-amino-3-chloro-6-(3-fluoro-4-iodophenyl)picolinate]",0 to 29

# Same assay, conditions: post-emergence, 336 h, ORYSA: rice (Oryza sativa), application rate 140 g ai/ha, read-out: Visual Growth Reduction (%) 14 Days After Application, ORYSA
row,SMILES,pest or weed control at 140 g/ha [%]
1,"COC(=O)c1nc(-c2ccc(I)c(F)c2)cc(N)c1Cl [Compound 66, methyl 4-amino-3-chloro-6-(3-fluoro-4-iodophenyl)picolinate]",0 to 29

# Same assay, conditions: post-emergence, 336 h, SETFA: giant foxtail (Setaria faberi), application rate 70 g ai/ha, read-out: Visual Growth Reduction (%) 14 Days After Application, SETFA
row,SMILES,pest or weed control at 70 g/ha [%]
1,"COC(=O)c1nc(-c2ccc(I)c(F)c2)cc(N)c1Cl [Compound 66, methyl 4-amino-3-chloro-6-(3-fluoro-4-iodophenyl)picolinate]",0 to 29

# Same assay, conditions: post-emergence, 336 h, SETFA: giant foxtail (Setaria faberi), application rate 140 g ai/ha, read-out: Visual Growth Reduction (%) 14 Days After Application, SETFA
row,SMILES,pest or weed control at 140 g/ha [%]
1,"COC(=O)c1nc(-c2ccc(I)c(F)c2)cc(N)c1Cl [Compound 66, methyl 4-amino-3-chloro-6-(3-fluoro-4-iodophenyl)picolinate]",0 to 29

# Same assay, conditions: post-emergence, 336 h, SORVU: grain sorghum (Sorghum vulgare), application rate 70 g ai/ha, read-out: Visual Growth Reduction (%) 14 Days After Application, SORVU
row,SMILES,pest or weed control at 70 g/ha [%]
1,"COC(=O)c1nc(-c2ccc(I)c(F)c2)cc(N)c1Cl [Compound 66, methyl 4-amino-3-chloro-6-(3-fluoro-4-iodophenyl)picolinate]",75 to 84

# Same assay, conditions: post-emergence, 336 h, SORVU: grain sorghum (Sorghum vulgare), application rate 140 g ai/ha, read-out: Visual Growth Reduction (%) 14 Days After Application, SORVU
row,SMILES,pest or weed control at 140 g/ha [%]
1,"COC(=O)c1nc(-c2ccc(I)c(F)c2)cc(N)c1Cl [Compound 66, methyl 4-amino-3-chloro-6-(3-fluoro-4-iodophenyl)picolinate]",85 to 94

# Same assay, conditions: post-emergence, 336 h, ZEAMX: maize, corn (Zea mays), application rate 70 g ai/ha, read-out: Visual Growth Reduction (%) 14 Days After Application, ZEAMX
row,SMILES,pest or weed control at 70 g/ha [%]
1,"COC(=O)c1nc(-c2ccc(I)c(F)c2)cc(N)c1Cl [Compound 66, methyl 4-amino-3-chloro-6-(3-fluoro-4-iodophenyl)picolinate]",0 to 29

# Same assay, conditions: post-emergence, 336 h, ZEAMX: maize, corn (Zea mays), application rate 140 g ai/ha, read-out: Visual Growth Reduction (%) 14 Days After Application, ZEAMX
row,SMILES,pest or weed control at 140 g/ha [%]
1,"COC(=O)c1nc(-c2ccc(I)c(F)c2)cc(N)c1Cl [Compound 66, methyl 4-amino-3-chloro-6-(3-fluoro-4-iodophenyl)picolinate]",0 to 29

# System: not given
# Assay: not given
# Settings: not given
row,melting point [°C],SMILES
1,141 to 143,"COC(=O)c1nc(-c2ccc(I)c(F)c2)cc(N)c1Cl [Compound 66, methyl 4-amino-3-chloro-6-(3-fluoro-4-iodophenyl)picolinate]"
